Test results reported in US20140378541A1, “Synthetic Epigallocatechin Gallate (EGCG) Analogs” (WAYNE STATE UNIVERSITY, priority 2011, published 2014).

Biological target: T1, proteasomal chymotrypsin-like activity of MDA-MB-231 cell extracts (Homo sapiens, UniProt P28074)
T1 construct: endogenous in cells; host or cells: MDA-MB-231 human breast cancer cells (ATCC), cell extract
T1 sequence (P28074 60-263): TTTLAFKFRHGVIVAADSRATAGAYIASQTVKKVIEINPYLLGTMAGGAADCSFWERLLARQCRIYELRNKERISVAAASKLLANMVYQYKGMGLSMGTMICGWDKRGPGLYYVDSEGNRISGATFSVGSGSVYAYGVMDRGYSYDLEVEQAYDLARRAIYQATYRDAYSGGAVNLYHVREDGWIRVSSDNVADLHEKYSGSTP
Experiment: Proteasomal chymotrypsin-like activity in MDA-MB-231 cell lysate with high COMT activity
Format: biochemical
Details: 10 μM
Procedure: (A) MDA-MB-231 cell extracts (5.7 μg) were incubated with different concentrations of compound 5 or 7 or EGCG for 2 hours, followed by performance of proteasomal chymotrypsin-like activity assay. EGCG was used as a control. (B) MDA-MB-231 cell extracts (5.7 μg) were pre-treated with 10 μM DNC for 20 minutes, followed by co-incubation with compound 5, or 7 or EGCG for 2 h. The proteasomal chymotrypsin-like activity was measured.
Human breast cancer MDA-MB-231 cell lysate that contains high COMT activity were treated with varying concentrations of compound 5 or 7. […] Thus, consistent with previous reports EGCG is also susceptible to methylation by COMT (H., Lu, X. Meng, C. S. Yang, Drug Metabolism and Disposition; 31; 572, 2003).

With `O=C(O[C@@H]1Cc2c(O)cc(O)cc2O[C@@H]1c1cc(O)c(O)c(O)c1)c1cc(O)c(O)c(O)c1` [Compound 1, (−)-Epigallocatechin gallate, reference compound] the inhibition at 10 µM was about 22%.
